Source: ChEMBL document CHEMBL4177738, “Synthesis and evaluation of a class of 1,4,7-triazacyclononane derivatives as iron depletion antitumor agents” (Bioorg Med Chem Lett, 2018)
Active and inactive are the calls of the source. The rule behind the calls is not given here.

Experiments:
HepG2 [1] = assay: Antiproliferative activity against human HepG2 cells assessed as reduction in cell viability incubated for 72 hrs by MTT assay; assay type: functional, cell-based; details: HepG2, 72 h
L02 [2] = assay: Antiproliferative activity against human LO2 cells assessed as reduction in cell viability at 50 uM incubated for 72 hrs by MTT assay; assay type: cell-based; details: l02, 72 h
HepG2 [3] = assay: Antiproliferative activity against human HepG2 cells assessed as reduction in cell viability at 50 uM incubated for 72 hrs in presence of 50 uM iron chloride by MTT assay; assay type: functional, cell-based
HepG2 [4] = assay: Antiproliferative activity against human HepG2 cells assessed as reduction in cell viability at 50 uM incubated for 72 hrs by MTT assay; assay type: functional; details: HepG2, 72 h
L02 [5] = assay: Increase in cell viability in human LO2 cells at 50 uM incubated for 72 hrs by MTT assay relative to untreated control; assay type: functional

Row | SMILES | IC50 (HepG2 [1]) [µM] | Activity (L02 [2]) | inhibition (HepG2 [3]) | inhibition at 50 µM (HepG2 [4]) [%] | fold change (FC) (L02 [5])
1 | CC(=O)N(O)CCCCCNC(=O)CCC(=O)N(O)CCCCCNC(=O)CCC(=O)N(O)CCCCCN [DEFEROXAMINE] | > 100 | Non-Toxic | inactive | 40 | –
2 | O=C(O)CN(CCN1CCN(CP(=O)(O)O)CCN(CP(=O)(O)O)CC1)CC(=O)O | 3.8 | Non-Toxic | – | – | 3 - 8
3 | Nc1ccc(CCCN(CCN2CCN(CC(=O)O)CCN(CC(=O)O)CC2)CC(=O)O)cc1 | 1.5 | Non-Toxic | – | – | 3 - 8
4 | O=C(O)CN(CCN(CC(=O)O)CC(=O)O)CCN(CC(=O)O)CC(=O)O [PENTETIC ACID] | 38.3 | Non-Toxic | inactive | 60 | –
5 | O=C(O)CN(CCCc1ccc([N+](=O)[O-])cc1)CCN1CCN(CC(=O)O)CCN(CC(=O)O)CC1 | 1.4 | Non-Toxic | – | – | 3 - 8
6 | O=C(O)CN1CCN(CCn2cccc(O)c2=O)CCN(CC(=O)O)CC1 | 6.9 | Non-Toxic | inactive | 80 | 3 - 8
7 | O=C(O)CN1CCN(CCCn2cccc(O)c2=O)CCN(CC(=O)O)CC1 | 4.5 | Non-Toxic | inactive | 80 | 3 - 8
8 | O=C(O)CN1CCN(CC(=O)O)CCN(CC(Cc2ccc([N+](=O)[O-])cc2)N(CC(=O)O)CC(=O)O)CC1 (stereo not given) | 8.2 | Non-Toxic | – | – | 3 - 8
